Assay results published in PMC8708252, “Silymarin Dehydroflavonolignans Chelate Zinc and Partially Inhibit Alcohol Dehydrogenase” (Nutrients, 2021).
One block for each compound: values may come before it.

Tests used:
Type in all cases: biochemical
[1] = biological target: T1, equine alcohol dehydrogenase (ADH) (Equus caballus, UniProt P00327); test: NADH absorbance ([…] nm) ethanol oxidation assay with recombinant enzyme
T1 construct: recombinant equine ADH

[2] = biological target: T2, bovine glutamate dehydrogenase type I (GDH) (Bos taurus, UniProt P00366); test: NADH absorbance ([…] nm) assay with and without […] zinc
T2 construct: gene GLUD1

[3] = biological target: T1, equine alcohol dehydrogenase (ADH); test: NADH absorbance ([…] nm) ethanol oxidation assay with recombinant enzyme; remark: listed apart in the source
[4] = biological target: T3, yeast alcohol dehydrogenase (ADH) (Saccharomyces cerevisiae, UniProt P00330); test: NADH absorbance ([…] nm) ethanol oxidation assay with isolated enzyme
T3 construct: gene ADH1
T3 sequence (P00330 2-348): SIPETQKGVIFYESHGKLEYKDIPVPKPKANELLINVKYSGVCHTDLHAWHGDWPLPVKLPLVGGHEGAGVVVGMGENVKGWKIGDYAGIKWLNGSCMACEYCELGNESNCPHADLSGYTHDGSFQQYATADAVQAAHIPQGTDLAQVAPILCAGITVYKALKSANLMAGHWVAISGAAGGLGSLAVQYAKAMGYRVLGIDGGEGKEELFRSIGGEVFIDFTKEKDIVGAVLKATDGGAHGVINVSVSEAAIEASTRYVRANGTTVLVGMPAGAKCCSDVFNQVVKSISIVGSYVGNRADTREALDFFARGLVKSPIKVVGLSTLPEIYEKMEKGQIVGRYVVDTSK

[5] = biological target: T1, equine alcohol dehydrogenase (ADH); test: NADH absorbance ([…] nm) ethanol oxidation assay with recombinant enzyme; remark: listed apart in the source

T1 sequence (P00327 2-375): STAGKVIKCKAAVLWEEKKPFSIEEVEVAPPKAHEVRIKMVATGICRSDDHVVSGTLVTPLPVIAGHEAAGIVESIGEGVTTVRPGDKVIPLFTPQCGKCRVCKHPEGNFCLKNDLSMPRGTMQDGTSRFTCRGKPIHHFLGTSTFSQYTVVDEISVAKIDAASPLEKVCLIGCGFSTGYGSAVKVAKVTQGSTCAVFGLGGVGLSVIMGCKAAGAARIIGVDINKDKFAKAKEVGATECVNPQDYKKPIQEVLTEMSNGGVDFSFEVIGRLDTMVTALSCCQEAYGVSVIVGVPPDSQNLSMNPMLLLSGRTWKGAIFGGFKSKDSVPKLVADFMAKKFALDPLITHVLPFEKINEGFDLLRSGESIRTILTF
T2 sequence (P00366 58-558): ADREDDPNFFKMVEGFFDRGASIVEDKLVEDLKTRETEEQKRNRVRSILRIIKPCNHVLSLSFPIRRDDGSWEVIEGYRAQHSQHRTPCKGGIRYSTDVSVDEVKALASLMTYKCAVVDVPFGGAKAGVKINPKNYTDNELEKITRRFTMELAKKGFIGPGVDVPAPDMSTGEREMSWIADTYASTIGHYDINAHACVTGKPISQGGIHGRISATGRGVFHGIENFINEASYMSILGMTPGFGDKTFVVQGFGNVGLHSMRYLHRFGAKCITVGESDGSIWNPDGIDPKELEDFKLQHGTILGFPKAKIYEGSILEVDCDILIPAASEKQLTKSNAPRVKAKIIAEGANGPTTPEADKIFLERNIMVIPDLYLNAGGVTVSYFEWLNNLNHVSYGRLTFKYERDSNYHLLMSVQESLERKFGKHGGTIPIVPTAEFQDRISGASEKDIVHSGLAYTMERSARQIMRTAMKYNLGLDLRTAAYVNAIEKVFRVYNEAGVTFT

SMILES: COc1cc([C@H]2Oc3cc(-c4oc5cc(O)cc(O)c5c(=O)c4O)ccc3O[C@@H]2CO)ccc1O [DHS-A, 2,3-dehydrosilybin A]
- inhibition at 10 µM [1]: ~20%

SMILES: COc1cc(C2Oc3cc(-c4oc5cc(O)cc(O)c5c(=O)c4O)ccc3OC2CO)ccc1O (racemic) [DHS, 2,3-dehydrosilybin]
- NADH absorbance (340 nm) assay with and without 150 μM zinc [2]: they were particularly potent inhibitors of the enzyme itself

SMILES: COc1cc([C@@H]2Oc3cc(-c4oc5cc(O)cc(O)c5c(=O)c4O)ccc3O[C@H]2CO)ccc1O [DHS-B, 2,3-dehydrosilybin B]
- NADH absorbance (340 nm) ethanol oxidation assay with recombinant enzyme [3]: Inhibition of equine ADH by active flavonolignans

- IC50 [4]: 14 mM
- IC50 [5]: 0.00525 mM
SMILES: Cc1cn[nH]c1 [fomepizole]
